According to patent US20150064724A1, “BIOMARKERS FOR PROGNOSES OF PULMONARY DISEASES” (University of Pittsburgh - of the Commonwealth System of …, priority 2009, published 2015):

System: CD4+CD28null T cells from lung transplant recipients with BOS
Assay: Inhibition of proliferation by cyclosporine A (BrdU incorporation, flow cytometry)
Type: cell-based, human
Conditions: preliminary findings, n=2 subjects; compared with CD4+CD28+ cells
Protocol: Segregated CD28+ and CD28null CD4 T-cell subpopulations were individually cultured in duplicate wells coated with anti-CD3 monoclonal antibody (OKT3) (see above). Autologous nurse cells, positively selected during the initial CD4 T-cell isolations (see above) were added in a 3:1 nurse cell:CD4 T-cell ratio. In order to eliminate potential confounding by CD4dim monocytes, all CD4+ cells were depleted from the nurse cells (<<1% residual), prior to their use in cultures, by positive selection with anti-CD4-coated magnetic beads (Invitrogen, Carlsbad, Calif.). Cyclosporine (Novartis, East Hanover, N.J.) to a final concentration of 100 ng/ml was added to half the wells. Proliferation within the respective CD4 subpopulations were measured by bromodeoxyuridine (BrdU) incorporation, using reagents and methods supplied in a kit (BD Pharmingen). In brief, BrdU in a final concentration of 10 μM was added to cultures two days prior to their harvests. After 5±1 days of culture, cells were harvested from wells and stained with anti-CD4, fixed and permeabilized, and then incubated with anti-BrdU and 7-amino-actinomycin (7-AAD). The proportion of proliferating CD4+ T cells (BrdU+) among the viable cells (≧diploid DNA content) was determined by flow cytometry.

SMILES: C=CC[C@@H]1/C=C(\C)C[C@H](C)C[C@H](OC)[C@H]2O[C@@](O)(C(=O)C(=O)N3CCCC[C@H]3C(=O)O[C@H](/C(C)=C/[C@@H]3CC[C@@H](O)[C@H](OC)C3)[C@H](C)[C@@H](O)CC1=O)[C@H](C)C[C@@H]2OC [tacrolimus]
- resistance of CD4+CD28null T cells to the drug: relatively resistant
